[ ]: non-standard residue; d: D form. The star is where a group is joined. Butanoyl(4-pyren-1-yl) = O=C(CCCc1ccc2ccc3cccc4ccc1c2c34)*; Biotin = O=C1N[C@H]2[C@H](CS[C@H]2CCCCC(=O)*)N1
Experiments:
[1] = target: synthetic Aβ42 oligomer (Aβ42 Oligo Type A) (Homo sapiens, UniProt P05067); assay: Plate-based ELISA-like assay with immobilized biotinylated peptide probe (6E10-HRP/TMB detection); assay type: binding
Description: FIG. 4A and FIG. 4B illustrate the results in buffer and 10% soluble mouse brain extract using SEQ ID NO:41 as a peptide probe. […] The white bars indicate control reactions in which peptide are not added. Black bars show the complete reaction in which 9000, 1500, 250, 42, 7, 1.2, 0.2, or 0 pM Aβ42 oligomer is added (in triplicate) to wells containing bound peptide probe of SEQ ID NO:41.
The white bars indicate control reactions in which peptide are not added. Black bars show the complete reaction in which 10% human TBS brain extract containing 750, 250, 85, 28, 9.5, 3.1, or 0 pM Aβ42 oligomer is added (in triplicate) to wells containing bound peptide probe of SEQ ID NO:41.
FIG. 5A and FIG. 5B illustrate the results in 10% (A) and 30% (B) human brain TBS extract using SEQ ID NO:41 as a peptide probe. […] The white bars indicate control reactions in which peptide is not added. Black bars show the complete reaction in which 10% human TBS brain extract containing 750, 250, 85 or 0 pM Aβ42 oligomer is added (in triplicate) to wells containing bound peptide probe of SEQ ID NO:41.
The white bars indicate control reactions in which peptide are not added. Black bars show the complete reaction in which 30% human TBS brain extract containing 750, 250, 85, 28, 9.5, 3.1, or 0 pM Aβ42 oligomer is added (in triplicate) to wells containing bound peptide probe of SEQ ID NO:41.

[2] = system: Aβ40 Dimer; conditions: Mouse
Description: (§1) A plate-based ELISA-like assay was developed in which the above-described peptide probes may be used to capture and detect target amyloid beta protein (such as oligomers). […] Streptavidin-coated 96-well plates are prepared, followed by introduction of biotinylated peptide. Sample is then added to the wells and allowed to incubate, such as for two hours at room temperature. Any target amyloid beta protein in the sample will be capture by the immobilized peptide probe. The plate is then washed, such as using a low salt buffer to eliminate potential interfering factors (e.g. endogenous proteins, lipids, and other debris). The remaining amyloid beta aggregate-peptide probe complex is bound to a reporter antibody that is specific for the N-terminus of the amyloid beta sequence (6E10-HRP), and detected by addition of 3,3′,5,5′-tetramethylbenzidine (TMB).
(§2) Soluble brain extracts are prepared according to a known method. For example 5 mL tris-buffered saline (PH 7.4) is added per gram of frozen brain tissue, and then homogenized with a dounce homogenizer (25 strokes). The material is then centrifuged at 21,900× g for 30 minutes at 4 C. The resulting TBS supernatant (soluble extract) is used at 10-30% (v/v) final concentration in the following assays.

[3] = target: T1, Aβ40 monomer (Homo sapiens, UniProt P05067); assay: Plate-based ELISA-like assay with immobilized biotinylated peptide probe; assay type: binding; conditions: for Limit of detection, Aβ40 Monomer: up to 15 nM
Description: as §1, §2

[4] = target: Aβ42 Oligo (Type B) (Homo sapiens, UniProt P05067); assay: as above; assay type: binding
Description: as §1, §2

[5] = target: T2, Aβ42 monomer (Homo sapiens, UniProt P05067); assay: as above; assay type: binding; conditions: for Limit of detection, Aβ42 Monomer: up to 15 nM
Description: as §1, §2

[6] = target: T3, human serum albumin (Homo sapiens, UniProt P02768); assay: as above; assay type: binding
Description: as §1, §2

[7] = target: synthetic Aβ42 oligomer (Homo sapiens, UniProt P05067); assay: Self-fluorescence assay of pyrene-labeled probe with synthetic Aβ42 oligomer; assay type: binding; conditions: 70 nM probe
Description: 70 nM of the peptide probe of SEQ ID NO:2 is incubated with 4000, 2000, 1000, 450, 250 and 0 pM synthetic Aβ42 oligomer (in triplicate) in a solution consisting of 10 mM Hepes (pH 7.0), 0.0074% Tween20 and 30% (v/v) normal human CSF (Bioreclamations, Inc.) for 0, 3, and 18 hours at room temperature in a final volume of 200 μL in a microtiter plate. The plate is then analyzed using a Tecan safire^2 fluorescence plate reader. For each sample, the net self-fluorescence response (fluorescence emission from 370-385 nm) is determined by subtraction of the self-fluorescence response of the control (0 pM) from the fluorescence response of the experimental sample.
The specificity of the probe is confirmed as follows. 70 nM of the peptide probe of SEQ ID NO:22 is incubated with several potential substrates in a solution consisting of 10 mM Hepes (pH 7.0), 0.0074% Tween20 and 10% (v/v) normal human CSF. […] There also is a significant response to Aβ42 fiber down to at least 100 nN. […]
70 nM of each of the two peptoid probes 1 or 2 is incubated with 15, 5, 1.5 or 0 nM synthetic Aβ42 oligomer (in triplicate). […] The plate is then analyzed using a Tecan safire^2 fluorescence plate reader. For each sample, the self-fluorescence response (fluorescence emission from 370-385 nm) of the peptoid is plotted as a function of amyloid beta aggregate concentration.

[8] = target: Aβ42 fiber (Homo sapiens, UniProt P05067); assay: Self-fluorescence specificity assay of probe in 10% human CSF; assay type: binding; design: unit not given here; conditions: 70 nM probe; 10% (v/v) normal human CSF; FIG. 2
Description: (§3) The specificity of the probe is confirmed as follows. 70 nM of the peptide probe of SEQ ID NO:22 is incubated with several potential substrates in a solution consisting of 10 mM Hepes (pH 7.0), 0.0074% Tween20 and 10% (v/v) normal human CSF. […] There also is a significant response to Aβ42 fiber down to at least […]. […] Since fibers are easily removed from the reaction by a centrifugation step, specificity for amyloid beta oligomers is easily obtained.

[9] = target: Aβ40 fiber (Homo sapiens, UniProt P05067); assay: as above; assay type: binding; conditions: 70 nM probe; 10% (v/v) normal human CSF; FIG. 2
Description: as §3

[10] = target: T1, Aβ40 monomer; assay: as above; assay type: binding; conditions: 70 nM probe; 10% (v/v) normal human CSF; FIG. 2
Description: as §3

[11] = target: T2, Aβ42 monomer; assay: as above; assay type: binding; conditions: 70 nM probe; 10% (v/v) normal human CSF; FIG. 2
Description: as §3

[12] = system: carbonic anhydrase; assay: as above; assay type: binding; conditions: 70 nM probe; 10% (v/v) normal human CSF; FIG. 2
Description: as §3

[13] = target: T3, human serum albumin; assay: as above; assay type: binding; conditions: 70 nM probe; 10% (v/v) normal human CSF; except at the highest dose, 0.16 mg/mL; FIG. 2
Description: as §3

[14] = target: human serum albumin (human, UniProt P02768 25-609); assay: plate assay, biotinylated probe on streptavidin plate, 6E10-HRP/TMB detection; Human column (brain extract)

Molecule: PBA-KLVFFAEDVGSNKHAIIELMK(PBA)GLVPR GSGK(biotin)-NH2 [SEQ ID NO:41]
- lowest amount of amyloid beta aggregate detected in plate assay (t-test) ([1]; 10% human TBS brain extract, FIG. 4B): 28 pM
- amyloid beta aggregate detectable down to ([1]; 30% human TBS brain extract, FIG. 5B): ≤ 85 pM
- Limit of detection, Aβ42 Oligo (Type A) ([1]; Human): ~28 pM
- Limit of detection, Aβ42 Oligo (Type A) ([1]; Mouse): ~28 to 85 pM
- lowest amount of amyloid beta aggregate detected in plate assay (t-test) ([1]; buffer system, FIG. 4A): 7 pM
- Limit of detection, Aβ40 Dimer [2]: 850 pM
- Limit of detection, Aβ40 Monomer ([3]; Human): Not detected
- Limit of detection, Aβ40 Monomer ([3]; Mouse): Not detected
- TMB response to Aβ40 monomer ([3]; plate assay): little to no TMB response
- Limit of detection, Aβ42 Oligo (Type B) ([4]; Human): 8.5 pM
- Limit of detection, Aβ42 Oligo (Type B) ([4]; Mouse): ~8.5 pM
- Limit of detection, Aβ42 Monomer ([5]; Human): Not detected
- Limit of detection, Aβ42 Monomer ([5]; Mouse): Not detected
- TMB response to Aβ42 monomer ([5]; plate assay): little to no TMB response
- Limit of detection, has ([6]; Human, up to 0.15 mg/mL): Not detected
- Limit of detection, has ([6]; Mouse): Not detected
- TMB response to human serum albumin ([6]; plate assay): little to no TMB response

Molecule: PBA-KLVFFAEDVGSNKHAIIELMK(PBA)-NH2 ({Butanoyl(4-pyren-1-yl)}-KLVFFAEDVGSNKHAIIELMK(Butanoyl(4-pyren-1-yl))-NH2; SMILES CC[C@H](C)[C@H](NC(=O)[C@H](C)NC(=O)[C@H](Cc1c[nH]cn1)NC(=O)[C@H](CCCCN)NC(=O)[C@H](CC(N)=O)NC(=O)[C@H](CO)NC(=O)CNC(=O)[C@@H](NC(=O)[C@H](CC(=O)O)NC(=O)[C@H](CCC(=O)O)NC(=O)[C@H](C)NC(=O)[C@H](Cc1ccccc1)NC(=O)[C@H](Cc1ccccc1)NC(=O)[C@@H](NC(=O)[C@H](CC(C)C)NC(=O)[C@H](CCCCN)NC(=O)CCCc1ccc2ccc3cccc4ccc1c2c34)C(C)C)C(C)C)C(=O)N[C@H](C(=O)N[C@@H](CCC(=O)O)C(=O)N[C@@H](CC(C)C)C(=O)N[C@@H](CCSC)C(=O)N[C@@H](CCCCNC(=O)CCCc1ccc2ccc3cccc4ccc1c2c34)C(N)=O)[C@@H](C)CC) [SEQ ID NO:2, Salt bridge at G29H and G33E]
- Aβ42 oligomer concentration statistically distinguishable from the control reaction (net self-fluorescence response, t-test) ([7]; 10 mM Hepes pH 7.0, 0.0074% Tween20, 30% (v/v) normal human CSF, emission 370-385 nm, FIG. 1): 450 pM

Molecule: PBA-KLVFFAEDVGSNKGAIIGLMK(PBA)rr-NH2 ({Butanoyl(4-pyren-1-yl)}-KLVFFAEDVGSNKGAIIGLMK(Butanoyl(4-pyren-1-yl))[dR][dR]-NH2; SMILES CC[C@H](C)[C@H](NC(=O)[C@H](C)NC(=O)CNC(=O)[C@H](CCCCN)NC(=O)[C@H](CC(N)=O)NC(=O)[C@H](CO)NC(=O)CNC(=O)[C@@H](NC(=O)[C@H](CC(=O)O)NC(=O)[C@H](CCC(=O)O)NC(=O)[C@H](C)NC(=O)[C@H](Cc1ccccc1)NC(=O)[C@H](Cc1ccccc1)NC(=O)[C@@H](NC(=O)[C@H](CC(C)C)NC(=O)[C@H](CCCCN)NC(=O)CCCc1ccc2ccc3cccc4ccc1c2c34)C(C)C)C(C)C)C(=O)N[C@H](C(=O)NCC(=O)N[C@@H](CC(C)C)C(=O)N[C@@H](CCSC)C(=O)N[C@@H](CCCCNC(=O)CCCc1ccc2ccc3cccc4ccc1c2c34)C(=O)N[C@H](CCCNC(=N)N)C(=O)N[C@H](CCCNC(=N)N)C(N)=O)[C@@H](C)CC) [SEQ ID NO:22, WT, with 2 C-terminal dArg residues, and alternate label site]
- peptide probe fluorescence response to Aβ42 oligomer ([7]; 10% (v/v) normal human CSF, FIG. 2): strong and dose-dependent response
- lowest Aβ42 fiber concentration giving significant response [8]: ≤ 100
- peptide fluorescence response to Aβ40 fiber [9]: little or no peptide fluorescence response
- peptide fluorescence response to Aβ40 monomer [10]: little or no peptide fluorescence response
- peptide fluorescence response to Aβ42 monomer [11]: little or no peptide fluorescence response
- peptide fluorescence response to carbonic anhydrase [12]: little or no peptide fluorescence response
- peptide fluorescence response to human serum albumin [13]: little or no peptide fluorescence response

B1: peptide probe of SEQ ID NO:41 (peptide)
peptide: {Butanoyl(4-pyren-1-yl)}-KLVFFAEDVGSNKHAIIELMK(Butanoyl(4-pyren-1-yl))GLVPRGSGK(Biotin)-NH2
SMILES: CC[C@H](C)[C@H](NC(=O)[C@H](C)NC(=O)[C@H](Cc1c[nH]cn1)NC(=O)[C@H](CCCCN)NC(=O)[C@H](CC(N)=O)NC(=O)[C@H](CO)NC(=O)CNC(=O)[C@@H](NC(=O)[C@H](CC(=O)O)NC(=O)[C@H](CCC(=O)O)NC(=O)[C@H](C)NC(=O)[C@H](Cc1ccccc1)NC(=O)[C@H](Cc1ccccc1)NC(=O)[C@@H](NC(=O)[C@H](CC(C)C)NC(=O)[C@H](CCCCN)NC(=O)CCCc1ccc2ccc3cccc4ccc1c2c34)C(C)C)C(C)C)C(=O)N[C@H](C(=O)N[C@@H](CCC(=O)O)C(=O)N[C@@H](CC(C)C)C(=O)N[C@@H](CCSC)C(=O)N[C@@H](CCCCNC(=O)CCCc1ccc2ccc3cccc4ccc1c2c34)C(=O)NCC(=O)N[C@@H](CC(C)C)C(=O)N[C@H](C(=O)N1CCC[C@H]1C(=O)N[C@@H](CCCNC(=N)N)C(=O)NCC(=O)N[C@@H](CO)C(=O)NCC(=O)N[C@@H](CCCCNC(=O)CCCC[C@@H]1SC[C@@H]2NC(=O)N[C@@H]21)C(N)=O)C(C)C)[C@@H](C)CC
notes: P22 with a thrombin site linker and biotin at the C-terminus, immobilised on streptavidin-coated plates; also called AD317; biotinylated peptide probe
- binding result [14]: no binding (tested: up to 0.15 mg/mL)
